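Assay format: 96-well plates, 48-hour exposure. Abbreviation: GI50, concentration required for 50% inhibition of growth. Definition used: TGI = concentration required for complete inhibition of growth.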
Key:
Experiment in all cases: growth of human tumour cells (NCI), 48 h
OVCAR-8 ovarian = test system: OVCAR-8 ovarian
KM12 colon = test system: KM12 colon
UO-31 renal = test system: UO-31 renal
OVCAR-4 ovarian = test system: OVCAR-4 ovarian
A549 NSCLC = test system: A549 NSCLC
MDA-MB-435 = test system: MDA-MB-435
EKVX NSCLC = test system: EKVX NSCLC
HOP-62 NSCLC = test system: HOP-62 NSCLC
SF-295 CNS = test system: SF-295 CNS
NCI/ADR-RES ovarian = test system: NCI/ADR-RES ovarian

Structure (SMILES)	GI50 (OVCAR-8 ovarian) [µM]	TGI (OVCAR-8 ovarian) [µM]	GI50 (KM12 colon) [µM]	TGI (KM12 colon) [µM]	GI50 (UO-31 renal) [µM]	TGI (UO-31 renal) [µM]	GI50 (OVCAR-4 ovarian) [µM]	TGI (OVCAR-4 ovarian) [µM]	GI50 (A549 NSCLC) [µM]	TGI (A549 NSCLC) [µM]	GI50 (MDA-MB-435) [µM]	TGI (MDA-MB-435) [µM]	GI50 (EKVX NSCLC) [µM]	TGI (EKVX NSCLC) [µM]	GI50 (HOP-62 NSCLC) [µM]	TGI (HOP-62 NSCLC) [µM]	GI50 (SF-295 CNS) [µM]	TGI (SF-295 CNS) [µM]	GI50 (NCI/ADR-RES ovarian) [µM]	TGI (NCI/ADR-RES ovarian) [µM]
O=C([O-])CC(=O)[O-].[NH-][C@@H]1CCCC[C@H]1[NH-].[Pt+4]	24.5	> 100	85	> 100	18.9	> 100	> 33.9	> 100	11.1	> 100	15.5	> 100	> 100	> 100	> 27.1	> 100	39.4	> 100	–	–
COc1cc2cnc3c4cc(OCc5ccccc5)ccc4ccc3c2cc1OC	–	> 100	–	> 100	–	> 100	–	39.8	–	> 100	–	–	–	> 100	–	76.5	–	82.9	–	–
CNC(=O)CN(CC(=O)O)C(=O)NC	–	> 100	–	> 100	–	> 100	–	> 100	–	> 100	–	–	–	> 100	–	> 100	–	> 100	–	–
CCC(CO)Nc1nc2c(c(=O)n(C)c(=O)n2C)n1CCO (stereo not given)	–	> 100	–	> 100	–	> 100	–	–	–	> 100	–	–	–	> 100	–	–	–	> 100	–	–
C=C1C(OC(C)=O)CC(OC(C)=O)C2(C)C(OC(C)=O)C(OC(C)=O)C3=C(C)C(OC(=O)/C=C/c4ccccc4)CC(C(OC(C)=O)C12)C3(C)C (stereo not given)	–	> 100	–	> 100	–	> 100	–	> 100	–	> 100	–	–	–	–	–	> 100	–	> 100	–	–
COc1ccc2c(c1)CCc1c-2n[nH]c1-c1[nH]nc2c1CCc1cc(OC)ccc1-2	–	> 100	–	> 100	–	> 100	–	–	–	> 100	–	–	–	> 100	–	56.3	–	39.5	–	–
COc1ccc2c(c1)CN1CCc3c(cc(OC)c(OC)c3OC)C1C2 (stereo not given)	–	> 100	–	–	–	> 100	–	> 100	–	> 100	–	–	–	> 100	–	> 100	–	> 100	–	–
COc1ccc(OC(C)C(=O)O)c2c(=O)ccccc12 (stereo not given)	–	> 100	–	> 100	–	> 100	–	> 100	–	> 100	–	–	–	> 100	–	> 100	–	> 100	–	–
COc1cc(/C=N/N=C(\N)NO)c([N+](=O)[O-])cc1OC	–	> 100	–	> 100	–	> 100	–	> 100	–	> 100	–	–	–	> 100	–	> 100	–	> 100	–	–
CC[PH+](CC)CC.[Cl][Au]	2.19	5.21	11.6	26	6.21	10.7	1.47	2.97	15.5	44.4	–	–	1.42	2.91	19.4	33.7	4.32	8.88	–	–
CCN(Cc1c(F)cccc1Cl)c1ccc(CO)c(Cl)c1	7.65	23.9	11.8	25.8	12.9	26.1	0.0648	0.661	0.573	16.6	10.9	24.3	–	–	0.174	18.3	0.178	15.7	10.4	28.7
CCC[CH2][Sn]1([CH2]CCC)[S]CC[N]1S(=O)(=O)c1ccc(C)cc1	1.63	4.16	2.02	3.59	1.14	2.35	1.85	3.27	3.15	9.32	–	–	–	–	2.22	3.83	1.97	3.42	–	–
CCCCN(CCCC)CC(C(C)=O)C(c1ccccc1)c1c(O)c2ccccc2oc1=O (stereo not given)	–	> 100	–	> 100	–	–	–	> 100	–	> 100	–	–	–	> 100	–	> 100	–	> 100	–	–
CC(=O)NN1C(=O)C(Cc2ccccc2)c2ccccc21 (stereo not given)	–	> 100	–	> 100	–	> 100	–	> 100	–	> 100	–	–	–	> 100	–	> 100	–	> 100	–	–
O/N=C/c1ccc(O)c(O)c1	–	> 100	–	> 100	–	> 100	–	> 100	–	> 100	–	–	–	> 100	–	> 100	–	> 100	–	–
CN(C)CCCNc1nc2ccccc2c2[nH]c3ccccc3c12	0.917	6.65	0.721	2.28	1.69	10.9	–	–	0.402	8.18	1.28	3.89	1.38	4.75	0.497	3.77	0.972	3.11	0.769	4.08
CN(N)c1nc(N)c(C#N)c(C#N)c1C#N	–	> 10	–	> 10	–	–	–	> 10	–	> 10	–	> 10	–	–	–	> 10	–	> 10	–	> 10
COC(C)C(O)(C(=O)OCC1=CCN2CCC(O)C12)C(C)(C)O (stereo not given)	–	> 100	–	> 100	–	> 100	–	> 100	–	> 100	–	> 100	–	> 100	–	–	–	> 100	–	> 100
CC1SC(c2ccc(Cl)cc2Cl)N(NC(=O)C(O)c2ccccc2)C1=O (stereo not given)	63.4	> 100	51.2	> 100	48.9	> 100	28.5	98.5	33.9	> 100	74.7	> 100	68.8	> 100	> 100	> 100	23.7	> 100	–	–
O=C(O)c1ccc(SSc2ccc(C(=O)O)cn2)nc1	–	> 100	–	> 100	–	–	–	> 100	–	> 100	–	> 100	–	> 100	–	> 100	–	> 100	–	> 100

From PubChem BioAssay (NCI)
